Data taken from patent US20240368169A1 (priority 2021, published 2024).

System: MDA-MB-436 cells
Experiment: Growth inhibition assay against BRCA mutant human breast cancer MDA-MB-436 cell line (CCK-8, 7 days)
Format: cell-based

| Structure (SMILES) | IC50 [nM] |
| --- | --- |
| CNC(=O)c1ccc(N2CCN(Cc3ccc4c5c(c(=O)[nH]c4c3)COC5)CC2)cn1 [Example 1, 7-((4-(6-(methylcarbamoyl)pyridin-3-yl)piperazin-1-yl)methyl)-3,5-dihydrofuro[3,4-c]quinolin-4(1H)-one] | 170 |
| CNC(=O)c1ccc(N2CCN(Cc3ccc4c5c(c(=O)[nH]c4c3)CCC5)CC2)c(C)n1 [Example 17, 7-((4-(2-methyl-6-(methylcarbamoyl)pyridin-3-yl)piperazin-1-yl)methyl)-1,2,3,5-tetrahydro-4H-cyclopenta[c]quinolin-4-one] | 2.59 |
| CNC(=O)c1ccc(N2CCN(Cc3ccc4c(c3)[nH]c(=O)c3cncn34)CC2)c(C)n1 [Example 26, 7-((4-(2-methyl-6-(methylcarbamoyl)pyridin-3-yl)piperazin-1-yl)methyl)imidazo[1,5-a]quinoxalin-4(5H)-one] | 23.9 |
| CNC(=O)c1ccc(N2CCN(Cc3ccc4c(c3)[nH]c(=O)c3ncnn34)CC2)c(C)n1 [Example 29, 7-((4-(2-methyl-6-(methylcarbamoyl)pyridin-3-yl)piperazin-1-yl)methyl)-[1,2,4]triazolo[1,5-a]quinoxalin-4(5H)-one] | 28.2 |
| CNC(=O)c1ccc(N2CCN(Cc3ccc4c(c3)[nH]c(=O)n3ccnc43)CC2)c(C)n1 [Example 31, 8-((4-(2-methyl-6-(methylcarbamoyl)pyridin-3-yl)piperazin-1-yl)methyl)imidazo[1,2-c]quinazolin-5(6H)-one] | 2.08 |
| CNC(=O)c1ccc(N2CCN(Cc3ccc4c(c3)[nH]c(=O)c3cccn34)CC2)c(F)n1 [Example 34, 7-((4-(2-fluoro-6-(methylcarbamoyl)pyridin-3-yl)piperazin-1-yl)methyl)pyrrolo[1,2-a]quinoxalin-4(5H)-one] | 0.75 |
| CNC(=O)c1ccc(N2CCN(Cc3ccc4c(c3)[nH]c(=O)c3cncn34)CC2)c(Cl)n1 [Example 39, 7-((4-(2-chloro-6-(methylcarbamoyl)pyridin-3-yl)piperazin-1-yl)methyl)imidazo[1,5-a]quinoxalin-4(5H)-one] | 3.56 |
| CNC(=O)c1ccc(N2CCN(Cc3cc(F)c4c(c3)[nH]c(=O)c3cccn34)CC2)c(F)n1 [Example 41, 7-((4-(2-fluoro-6-(methylcarbamoyl)pyridin-3-yl)piperazin-1-yl)methyl)-9-fluoropyrrolo[1,2-a]quinoxalin-4(5H)-one] | 1.41 |
| CNC(=O)c1ccc(N2CCN(Cc3cc(F)c4c(c3)[nH]c(=O)c3cccn34)CC2)c(Cl)n1 [Example 42, 7-((4-(2-chloro-6-(methylcarbamoyl)pyridin-3-yl)piperazin-1-yl)methyl)-9-fluoropyrrolo[1,2-a]quinoxalin-4(5H)-one] | 0.93 |
| CNC(=O)c1ccc(N2CCN(Cc3cc(F)c4c(c3)[nH]c(=O)c3ccnn34)CC2)c(C)n1 [Example 43, 7-((4-(2-methyl-6-(methylcarbamoyl)pyridin-3-yl)piperazin-1-yl)methyl)-9-fluoropyrazolo[1,5-a]quinoxalin-4(5H)-one] | 1.2 |
| CNC(=O)c1ccc(N2CCN(Cc3cc(F)c4c(c3)[nH]c(=O)c3ccnn34)CC2)c(Cl)n1 [Example 45, 7-((4-(2-chloro-6-(methylcarbamoyl)pyridin-3-yl)piperazin-1-yl)methyl)-9-fluoropyrazolo[1,5-a]quinoxalin-4(5H)-one] | 2.24 |
| CNC(=O)c1ccc(N2CCN(Cc3cc(Cl)c4c(c3)[nH]c(=O)c3ccnn34)CC2)c(C)n1 [Example 46, 7-((4-(2-methyl-6-(methylcarbamoyl)pyridin-3-yl)piperazin-1-yl)methyl)-9-chloropyrazolo[1,5-a]quinoxalin-4(5H)-one] | 2.27 |
| CNC(=O)c1ccc(N2CCN(Cc3cc(Cl)c4c(c3)[nH]c(=O)c3ccnn34)CC2)c(F)n1 [Example 47, 7-((4-(2-fluoro-6-(methylcarbamoyl)pyridin-3-yl)piperazin-1-yl)methyl)-9-chloropyrazolo[1,5-a]quinoxalin-4(5H)-one] | 2.6 |
| CCNC(=O)c1ccc(N2CCN(Cc3ccc4c5c(c(=O)[nH]c4c3)CCC5)CC2)c(C)n1 [Example 49, 7-((4-(2-methyl-6-(ethylcarbamoyl)pyridin-3-yl)piperazin-1-yl)methyl)-1,2,3,5-tetrahydro-4H-cyclopenta[c]quinolin-4-one] | 2.18 |
| CCNC(=O)c1ccc(N2CCN(Cc3ccc4c5c(c(=O)[nH]c4c3)CCC5)CC2)c(Cl)n1 [Example 50, 7-((4-(2-chloro-6-(ethylcarbamoyl)pyridin-3-yl)piperazin-1-yl)methyl)-1,2,3,5-tetrahydro-4H-cyclopenta[c]quinolin-4-one] | 5.7 |
| CNC(=O)c1ccc(N2CCN(Cc3ccc4c(c3)[nH]c(=O)c3cc(C)cn34)CC2)c(C)n1 [Example 55, 7-((4-(2-methyl-6-(methylcarbamoyl)pyridin-3-yl)piperazin-1-yl)methyl)-2-methylpyrrolo[1,2-a]quinoxalin-4(5H)-one] | 1.44 |

| Structure (SMILES) | IC50 [nM] |
| --- | --- |
| CNC(=O)c1ccc(N2CCN(Cc3ccc4c(c3)[nH]c(=O)c3c(C)cnn34)CC2)c(C)n1 [Example 58, 7-((4-(2-methyl-6-(methylcarbamoyl)pyridin-3-yl)piperazin-1-yl)methyl)-3-methylpyrazolo[1,5-a]quinoxalin-4(5H)-one] | 1.87 |
| O=C(NC1CC1)c1ccc(N2CCN(Cc3ccc4c(c3)[nH]c(=O)c3cccn34)CC2)c(F)n1 [Example 60, 7-((4-(2-fluoro-6-(cyclopropylcarbamoyl)pyridin-3-yl)piperazin-1-yl)methyl)pyrrolo[1,2-a]quinoxalin-4(5H)-one] | 0.63 |
| O=C(NC1CC1)c1ccc(N2CCN(Cc3ccc4c(c3)[nH]c(=O)c3cccn34)CC2)c(Cl)n1 [Example 61, 7-((4-(2-chloro-6-(cyclopropylcarbamoyl)pyridin-3-yl)piperazin-1-yl)methyl)pyrrolo[1,2-a]quinoxalin-4(5H)-one] | 0.98 |
| Cc1nc(C(=O)NC2CC2)ccc1N1CCN(Cc2ccc3c4c(c(=O)[nH]c3c2)COC4)CC1 [Example 63, 7-((4-(2-methyl-6-(cyclopropylcarbamoyl)pyridin-3-yl)piperazin-1-yl)methyl)-3,5-dihydrofuro[3,4-c]quinolin-4(1H)-one] | 3.32 |
| CNC(=O)c1ccc(N2CCN(Cc3ccc4c(c3)[nH]c(=O)c3cccn34)CC2)cn1 [Example 65, 7-((4-(6-(methylcarbamoyl)pyridin-3-yl)piperazin-1-yl)methyl)pyrrolo[1,2-a]quinoxalin-4(5H)-one] | 1.12 |
| CNC(=O)c1ccc(N2CCN(Cc3cc(F)c4c(c3)[nH]c(=O)c3cc(C)nn34)CC2)c(C)n1 [Example 75, 7-((4-(2-methyl-6-(methylcarbamoyl)pyridin-3-yl)piperazin-1-yl)methyl)-9-fluoro-2-methylpyrazolo[1,5-a]quinoxalin-4(5H)-one] | 3.31 |
| CNC(=O)c1ccc(N2CCN(Cc3cc(F)c4c5c(c(=O)[nH]c4c3)CCC5)CC2)c(C)n1 [Example 79, 7-((4-(2-methyl-6-(methylcarbamoyl)pyridin-3-yl)piperazin-1-yl)methyl)-9-fluoro-1,2,3,5-tetrahydro-4H-cyclopenta[c]quinolin-4-one] | 1.04 |
| Cc1nc(C(=O)NC2CC2)ccc1N1CCN(Cc2cc(F)c3c4c(c(=O)[nH]c3c2)CCC4)CC1 [Example 81, 7-((4-(2-methyl-6-(cyclopropylcarbamoyl)pyridin-3-yl)piperazin-1-yl)methyl)-9-fluoro-1,2,3,5-tetrahydro-4H-cyclopenta[c]quinolin-4-one] | 4.67 |
| O=C(NC1CC1)c1ccc(N2CCN(Cc3cc(F)c4c5c(c(=O)[nH]c4c3)CCC5)CC2)c(F)n1 [Example 82, 7-((4-(2-fluoro-6-(cyclopropylcarbamoyl)pyridin-3-yl)piperazin-1-yl)methyl)-9-fluoro-1,2,3,5-tetrahydro-4H-cyclopenta[c]quinolin-4-one] | 3.66 |
| [2H]C([2H])([2H])NC(=O)c1ccc(N2CCN(Cc3cc(F)c4c(c3)[nH]c(=O)c3ccnn34)CC2)c(C)n1 [Example 90, 7-((4-(2-methyl-6-((methyl-d3)-carbamoyl)pyridin-3-yl)piperazin-1-yl)methyl)-9-fluoropyrazolo[1,5-a]quinoxalin-4(5H)-one] | 2.44 |
| CNC(=O)c1ccc(N2CCN(Cc3cc4[nH]c(=O)c5ccnn5c4cc3F)CC2)c(C)n1 [Example 93, 7-((4-(2-methyl-6-(methylcarbamoyl)pyridin-3-yl)piperazin-1-yl)methyl)-8-fluoropyrazolo[1,5-a]quinoxalin-4(5H)-one] | 5.68 |
| CNC(=O)c1ccc(N2CCN(Cc3cc(F)c4c(c3)[nH]c(=O)n3ccnc43)CC2)c(C)n1 [Example 96, 8-((4-(2-methyl-6-(methylcarbamoyl)pyridin-3-yl)piperazin-1-yl)methyl)-10-fluoroimidazo[1,2-c]quinazolin-5(6H)-one] | 1.93 |
| CNC(=O)c1ccc(N2CCN(Cc3cc(F)c4c(c3)[nH]c(=O)c3ccnn34)CC2)cn1 [Example 97, 7-((4-(6-(methylcarbamoyl)pyridin-3-yl)piperazin-1-yl)methyl)-9-fluoropyrazolo[1,5-a]quinoxalin-4(5H)-one] | 111 |
| CNC(=O)c1ccc(N2CCN(Cc3ccc4c(c3)[nH]c(=O)c3c(Cl)cnn34)CC2)c(F)n1 [Example 99, 7-((4-(2-fluoro-6-(methylcarbamoyl)pyridin-3-yl)piperazin-1-yl)methyl)-3-chloropyrazolo[1,5-a]quinoxalin-4(5H)-one] | 0.54 |
| Cc1nc(C(=O)O)ccc1N1CCN(Cc2cc(F)c3c(c2)[nH]c(=O)c2ccnn23)CC1 [Example 116, 7-((4-(2-methyl-6-carboxypyridin-3-yl)piperazin-1-yl)methyl)-9-fluoropyrazolo[1,5-a]quinoxalin-4(5H)-one] | > 100 |
| CNC(=O)c1ccc(N2CCN(Cc3ccc4c(c3)[nH]c(=O)n3nccc43)CC2)c(C)n1 [Example 118, 8-((4-(2-methyl-6-(methylcarbamoyl)pyridin-3-yl)piperazin-1-yl)methyl)pyrazolo[1,5-c]quinazolin-5(6H)-one] | 10.7 |
